Source: patent publication US20150315188A1, “COMPOUNDS AND METHODS FOR TREATMENT OF HYPERTENSION” (MEDIVATION TECHNOLOGIES, INC., priority 2012, published 2015)

Key:
Set-up in all cases: purchased Milipore (Millipore)
[1] = target: T1, Human adrenergic α2B receptor (Homo sapiens, UniProt P18089); test: Radioligand binding, adrenergic α2B (Protocol Group B); conditions: Protocol Group B; for Percentage inhibition of ligand binding, Adrenergic α2B (10 nM) / inhibition at 0.01 µM: 10 nM compound; for Percentage inhibition of ligand binding, Adrenergic α2B (30 nM) / inhibition at 0.03 µM: 30 nM compound; for Percentage inhibition of ligand binding, Adrenergic α2B (30 nM): 0.03 µM; for inhibition at 0.1 µM / Percentage inhibition of ligand binding, Adrenergic α2B (0.1 μM): 0.1 μM compound; for inhibition at 0.1 µM: read-out: Percentage inhibition of ligand binding, Adrenergic α2B (0.1 μM); for inhibition at 0.01 µM: read-out: Percentage inhibition of ligand binding, Adrenergic α2B (10 nM); for inhibition at 0.03 µM: read-out: Percentage inhibition of ligand binding, Adrenergic α2B (30 nM)
T1 sequence (P18089 1-450): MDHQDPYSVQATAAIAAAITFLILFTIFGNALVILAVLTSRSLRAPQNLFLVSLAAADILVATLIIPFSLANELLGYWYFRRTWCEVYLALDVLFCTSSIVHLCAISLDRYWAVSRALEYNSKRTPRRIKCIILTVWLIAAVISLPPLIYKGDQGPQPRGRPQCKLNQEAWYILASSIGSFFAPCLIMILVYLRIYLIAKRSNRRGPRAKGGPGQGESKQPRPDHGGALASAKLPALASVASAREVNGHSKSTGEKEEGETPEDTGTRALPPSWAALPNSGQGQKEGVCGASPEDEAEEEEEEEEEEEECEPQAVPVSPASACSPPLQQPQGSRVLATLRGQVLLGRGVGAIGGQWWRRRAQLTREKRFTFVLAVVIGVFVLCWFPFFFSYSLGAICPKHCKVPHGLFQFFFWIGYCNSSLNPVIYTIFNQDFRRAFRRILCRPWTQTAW
Procedure, shortened: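 Recombinant human α2B receptor membranes incubated with compounds in 50 mM Tris-HCl pH 7.4, 5 mM MgCl2, 1 mM CaCl2, 0.2% BSA, 1% DMSO vehicle. Non-specific binding defined with 10 μM rauwolscine. Values are percent inhibition of specific binding or estimated Ki.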

[2] = target: T2, Human adrenergic α2A receptor (Homo sapiens, UniProt P08913); test: Radioligand binding, adrenergic α2A (Protocol Group B); conditions: Protocol Group B; for Percentage inhibition of ligand binding, Adrenergic α2A (0.1 μM) / inhibition at 0.1 µM: 0.1 μM compound; for inhibition at 0.3 µM / Percentage inhibition of ligand binding, Adrenergic α2A (0.3 μM): 0.3 μM compound; for inhibition at 0.3 µM: read-out: Percentage inhibition of ligand binding, Adrenergic α2A (0.3 μM); for inhibition at 0.1 µM: read-out: Percentage inhibition of ligand binding, Adrenergic α2A (0.1 μM)
T2 sequence (P08913 1-465): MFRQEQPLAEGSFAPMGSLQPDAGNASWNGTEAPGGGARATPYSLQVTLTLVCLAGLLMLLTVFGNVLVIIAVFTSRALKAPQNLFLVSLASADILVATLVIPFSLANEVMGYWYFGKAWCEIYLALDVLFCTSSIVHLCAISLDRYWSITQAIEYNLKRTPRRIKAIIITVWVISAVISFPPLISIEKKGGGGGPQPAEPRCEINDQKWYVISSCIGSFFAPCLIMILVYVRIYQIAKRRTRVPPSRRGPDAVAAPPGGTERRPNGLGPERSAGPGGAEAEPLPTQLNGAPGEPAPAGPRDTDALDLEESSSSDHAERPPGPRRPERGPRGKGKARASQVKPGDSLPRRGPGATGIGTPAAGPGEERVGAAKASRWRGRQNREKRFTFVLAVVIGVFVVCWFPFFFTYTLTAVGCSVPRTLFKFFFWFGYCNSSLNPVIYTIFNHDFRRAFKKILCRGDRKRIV
Procedure, shortened: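 Membranes from recombinant cells expressing the receptor, in 50 mM Tris-HCl pH 7.4 with 5 mM MgCl2, 1 mM CaCl2, 0.2% BSA; compounds incubated with 2 nM [^3H]MK-912 for 60 min at 25° C. Nonspecific binding defined by 10 μM rauwolscine; filtration, counting; percent inhibition of specific binding, or estimated Ki.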

[3] = target: T3, Human adrenergic α1B receptor (Homo sapiens, UniProt P35368); test: Radioligand binding, adrenergic α1B (Protocol Group B); conditions: Protocol Group B; for Percentage inhibition of ligand binding, Adrenergic α1B (0.1 μM) / inhibition at 0.1 µM: 0.1 μM compound; for inhibition at 0.3 µM / Percentage inhibition of ligand binding, Adrenergic α1B (0.3 μM): 0.3 μM compound; for inhibition at 0.3 µM: read-out: Percentage inhibition of ligand binding, Adrenergic α1B (0.3 μM); for inhibition at 0.1 µM: read-out: Percentage inhibition of ligand binding, Adrenergic α1B (0.1 μM)
T3 sequence (P35368 1-520): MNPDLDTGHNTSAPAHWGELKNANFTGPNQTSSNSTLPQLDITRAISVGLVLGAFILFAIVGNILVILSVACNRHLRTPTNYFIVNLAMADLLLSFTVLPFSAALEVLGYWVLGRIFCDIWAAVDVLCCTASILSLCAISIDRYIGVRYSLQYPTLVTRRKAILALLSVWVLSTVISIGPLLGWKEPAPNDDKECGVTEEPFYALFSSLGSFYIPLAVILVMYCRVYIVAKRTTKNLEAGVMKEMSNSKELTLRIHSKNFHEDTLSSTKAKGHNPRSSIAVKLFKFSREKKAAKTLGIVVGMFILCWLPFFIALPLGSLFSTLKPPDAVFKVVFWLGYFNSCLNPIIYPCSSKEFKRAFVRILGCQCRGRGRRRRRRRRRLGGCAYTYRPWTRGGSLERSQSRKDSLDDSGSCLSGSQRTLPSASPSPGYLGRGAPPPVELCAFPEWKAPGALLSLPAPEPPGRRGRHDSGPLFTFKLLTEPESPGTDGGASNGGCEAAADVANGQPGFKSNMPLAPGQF
Procedure, shortened: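 Recombinant human α1B membranes incubated with test compound and 0.3 nM [3H]prazosin, 60 min at 25 °C, in 50 mM Tris-HCl pH 7.4, 10 mM MgCl2, 1 mM EDTA; nonspecific binding with 10 μM prazosin. Filter-bound radioactivity counted; values are % inhibition of specific binding or estimated Ki.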

SMILES	Percentage inhibition of ligand binding, Adrenergic α2B (10 nM) ([1]; 0.01 µM) [%]	Percentage inhibition of ligand binding, Adrenergic α2B (30 nM) [1] [%]	inhibition at 0.1 µM [1] [%]	Percentage inhibition of ligand binding, Adrenergic α2A (0.1 μM) [2] [%]	inhibition at 0.3 µM [2] [%]	Percentage inhibition of ligand binding, Adrenergic α1B (0.1 μM) [3] [%]	inhibition at 0.3 µM [3] [%]	Percentage inhibition of ligand binding, Adrenergic α2A (0.3 μM) [2] [%]	Percentage inhibition of ligand binding, Adrenergic α1B (0.3 μM) [3] [%]	inhibition at 0.01 µM [1] [%]	inhibition at 0.1 µM [2] [%]	inhibition at 0.1 µM [3] [%]	Percentage inhibition of ligand binding, Adrenergic α2B (10 nM) [1] [%]	Percentage inhibition of ligand binding, Adrenergic α2B (0.1 μM) [1] [%]	inhibition at 0.03 µM [1] [%]
Cc1cc(F)c2c(c1)c1c(n2CC(C)(O)c2ccncc2)CCN2CCCC12 (single isomer, unassigned) [81c]	−2	0	17	3	8	2	11								
Cc1cc(F)c2c(c1)c1c(n2CC(C)(O)c2cccnc2)CCN2CCCC12 (single isomer, unassigned) [79d]	−7	3		−7		−4		5	1						
Cc1ccc2c(c1)c1c(n2CC(OCC2CCC2)c2ccncc2)CCN2CCCC12 (single isomer, unassigned) [138d]		11		4		0									
Cc1cc(F)c2c(c1)c1c(n2CC(O)c2ccncc2)CCN2CCCC12 (single isomer, unassigned) [137c]		10					14	2		14	10	12			
CC(O)(Cn1c2c(c3cc(Cl)cc(F)c31)C1CCCN1CC2)c1ccncc1 (single isomer, unassigned) [52c]		11		7		−6		12	0				9	10	
CC(O)(Cn1c2c(c3cc(F)ccc31)C1CCCN1CC2)c1ccncc1 (single isomer, unassigned) [31c]		−2		0		1		−21	−4	3				45	
CN1CCc2c(c3cc(CCO)ccc3n2CC(O)c2ccncc2)C1 (single isomer, unassigned) [140a]		−12		−5		−9									
Cc1ccc2c(c1)c1c(n2CC(O)c2ccccn2)CC2CCCN2C1 (single isomer, unassigned) [45a]	−4	16		−1		12		12	35					43	
Cc1ccc2c(c1)c1c(n2CC(O)c2ccc(C(=O)N3CCCC3)nc2)CCN(C)C1 (centres unmarked) [compound 96, [5-[2-(2,8-dimethyl-3,4-dihydro-1H-pyrido[4,3-b]indol-5-yl)-1-hydroxy-ethyl]-2-pyridyl]-pyrrolidin-1-yl-methanone]					-9		9			1	-7	-1			21
CN1CCc2c(c3cc(CCO)ccc3n2CC(O)c2ccncc2)C1 (single isomer, unassigned) [140b]		56		−11		−4									
CN1CCc2c(c3c(Cl)ccc(Cl)c3n2CC(O)c2cccnc2)C1 (centres unmarked) [Compound No. 17, 2-(6,9-dichloro-2-methyl-3,4-dihydro-1H-pyrido[4,3-b]indol-5 (2H)-yl)-1-(pyridin-3-yl)ethanol]			-13		15		11			4	10	10			-12
Cc1ccc2c(c1)c1c(n2CC(O)c2ccccn2)CC2CCCN2C1 (single isomer, unassigned) [45c]	11	4		0		−5		−11	3					19	
Cc1ccc2c(c1)c1c(n2CC(O)c2ccncc2)CN(C)C2CCCC12 (single isomer, unassigned) [36a]	8	−5		−16	-5	−2			12					−3	
Cc1ccc2c(c1)c1c(n2CC(C)(O)c2cccnc2)CC2CCCN2C1 (centres unmarked) [41a]	24	51		−7		−2		6	−3					80	
Cc1cc(F)cc2c3c(n(CC(O)c4ccncc4)c12)CCN1CCCC31 (single isomer, unassigned) [136d]		−8		−12		−2									
OC(Cn1c2c(c3cc(Cl)ccc31)C1CCCN1CC2)c1ccncc1 (single isomer, unassigned) [143b]		100		93		94									
Cc1cc(C)c2c(c1)c1c(n2CC(O)C2CCCCC2)CCN2CCCC12 (centres unmarked) [141a]											85	55			93
